What was measured:
[1] = Drug uptake in pig brain cortex assessed as non-displaceable binding potential; format: ADME, tissue-based, Sus scrofa; conditions: in vivo
[2] = Binding affinity to pig 5-HT1B receptor (unknown origin) assessed as inhibition constant
[3] = molecular target: T1, 5-hydroxytryptamine receptor 1A (Homo sapiens, UniProt P08908)
T1 sequence (P08908 whole entry): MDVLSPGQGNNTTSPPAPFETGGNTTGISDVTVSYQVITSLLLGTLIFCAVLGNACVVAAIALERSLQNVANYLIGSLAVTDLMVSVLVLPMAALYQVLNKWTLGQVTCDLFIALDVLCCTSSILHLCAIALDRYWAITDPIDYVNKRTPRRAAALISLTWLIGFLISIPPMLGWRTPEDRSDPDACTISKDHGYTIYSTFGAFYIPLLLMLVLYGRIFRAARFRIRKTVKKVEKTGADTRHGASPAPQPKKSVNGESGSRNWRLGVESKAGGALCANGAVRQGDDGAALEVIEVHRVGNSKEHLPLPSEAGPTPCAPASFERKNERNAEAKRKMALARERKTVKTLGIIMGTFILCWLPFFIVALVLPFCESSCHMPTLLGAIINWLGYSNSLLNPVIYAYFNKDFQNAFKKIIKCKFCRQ

[4] = Ratio of drug uptake in rat temporal cortex to cerebellum by measuring radioactivity at 10 mins postinjection; format: ADME, organism-based; conditions: in vivo
[5] = Ratio of drug uptake in rat temporal cortex to cerebellum by measuring radioactivity at 20 mins postinjection; format: ADME, organism-based; conditions: in vivo
[6] = molecular target: T2, 5-hydroxytryptamine receptor 1A (Rattus norvegicus, UniProt P19327)
T2 sequence (P19327 whole entry): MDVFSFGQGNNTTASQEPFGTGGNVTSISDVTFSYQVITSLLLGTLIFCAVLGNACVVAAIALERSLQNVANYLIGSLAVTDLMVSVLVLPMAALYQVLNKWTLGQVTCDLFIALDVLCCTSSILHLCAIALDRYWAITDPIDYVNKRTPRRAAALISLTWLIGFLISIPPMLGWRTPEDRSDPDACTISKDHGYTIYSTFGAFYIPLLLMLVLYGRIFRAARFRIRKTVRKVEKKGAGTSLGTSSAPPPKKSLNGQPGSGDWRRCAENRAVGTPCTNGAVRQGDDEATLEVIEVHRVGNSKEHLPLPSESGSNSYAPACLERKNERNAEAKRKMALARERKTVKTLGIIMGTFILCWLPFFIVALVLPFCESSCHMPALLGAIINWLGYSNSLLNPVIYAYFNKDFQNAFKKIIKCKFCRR

[7] = molecular target: T3, 5-hydroxytryptamine receptor 7 (Homo sapiens, UniProt P34969)
[8] = molecular target: 5-hydroxytryptamine receptor 2B (Homo sapiens, UniProt P41595)
[9] = molecular target: 5-hydroxytryptamine receptor 1B (Homo sapiens, UniProt P28222)
[10] = molecular target: 5-hydroxytryptamine receptor 5A (Homo sapiens, UniProt P47898); test: Binding affinity to 5-HT5A receptor (unknown origin) assessed as inhibition constant
[11] = molecular target: T4, 5-hydroxytryptamine receptor 2C (Homo sapiens, UniProt P28335)
T4 sequence (P28335 whole entry): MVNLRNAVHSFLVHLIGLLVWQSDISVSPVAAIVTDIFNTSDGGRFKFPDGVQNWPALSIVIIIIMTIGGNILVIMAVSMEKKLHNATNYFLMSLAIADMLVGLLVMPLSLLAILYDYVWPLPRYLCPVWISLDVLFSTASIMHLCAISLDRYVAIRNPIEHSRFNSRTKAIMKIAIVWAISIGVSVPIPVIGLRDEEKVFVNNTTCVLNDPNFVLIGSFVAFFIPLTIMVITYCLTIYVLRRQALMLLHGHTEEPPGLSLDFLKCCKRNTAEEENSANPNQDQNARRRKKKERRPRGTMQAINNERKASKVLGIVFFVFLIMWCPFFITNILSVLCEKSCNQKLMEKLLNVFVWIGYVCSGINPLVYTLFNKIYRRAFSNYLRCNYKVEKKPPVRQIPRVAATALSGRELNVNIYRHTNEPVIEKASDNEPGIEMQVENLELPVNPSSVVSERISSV

[12] = molecular target: 5-hydroxytryptamine receptor 1D (Homo sapiens, UniProt P28221); test: Binding affinity to 5-HT1D (unknown origin) assessed as inhibition constant
[13] = molecular target: T1, 5-hydroxytryptamine receptor 1A; remark: listed apart in the source
[14] = Drug uptake in pig brain cortex measured at 10 to 20 mins postinjection; format: ADME, organism-based, Sus scrofa; conditions: in vivo, time 10-20 min
[15] = Lipophilicity, logD of the compound at pH 7.4; format: physicochemical; conditions: buffer
[16] = Ratio of drug uptake in rat hippocampus to cerebellum by measuring radioactivity at […], iv; format: ADME, tissue-based; conditions: in vivo, dose 25-30 mCi
[17] = Ratio of drug uptake in rhesus monkey temporal cortex to cerebellum assessed as non-displaceable binding potential; format: ADME, tissue-based, Macaca mulatta; conditions: in vivo
[18] = molecular target: T5, 5-hydroxytryptamine receptor 2C (Homo sapiens) (UniProt P28335); test: Binding affinity to 5-HT2C (unknown origin); conditions: filed as agonist
T5 sequence (whole entry): T4 sequence (P28335 whole entry)

[19] = molecular target: T5, 5-hydroxytryptamine receptor 2C (Homo sapiens); test: Agonist activity at 5-HT2C receptor (unknown origin); format: functional; conditions: filed as agonist
[20] = molecular target: T3, 5-hydroxytryptamine receptor 7; test: Binding affinity to human recombinant 5-HT7 receptor expressed in CHO cells assessed as inhibition constant; format: cell-based
[21] = molecular target: T6, Alpha-1A adrenergic receptor (Homo sapiens, UniProt P35348); test: Binding affinity to alpha 1A adrenergic receptor (unknown origin) assessed as inhibition constant
T6 sequence (P35348 whole entry): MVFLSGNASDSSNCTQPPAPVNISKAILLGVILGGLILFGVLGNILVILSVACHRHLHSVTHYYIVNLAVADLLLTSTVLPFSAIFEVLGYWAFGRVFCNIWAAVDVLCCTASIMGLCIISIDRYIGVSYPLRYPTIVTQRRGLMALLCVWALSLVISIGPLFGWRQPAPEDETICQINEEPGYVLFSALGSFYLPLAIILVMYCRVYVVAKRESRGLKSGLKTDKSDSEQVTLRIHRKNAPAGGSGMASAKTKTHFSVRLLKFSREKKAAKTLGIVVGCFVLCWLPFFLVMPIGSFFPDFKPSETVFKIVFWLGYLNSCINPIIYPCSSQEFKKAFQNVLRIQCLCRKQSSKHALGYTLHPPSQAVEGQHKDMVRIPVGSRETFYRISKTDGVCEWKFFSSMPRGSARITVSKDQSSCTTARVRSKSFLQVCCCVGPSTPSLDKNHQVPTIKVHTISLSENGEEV

T3 sequence (P34969 whole entry): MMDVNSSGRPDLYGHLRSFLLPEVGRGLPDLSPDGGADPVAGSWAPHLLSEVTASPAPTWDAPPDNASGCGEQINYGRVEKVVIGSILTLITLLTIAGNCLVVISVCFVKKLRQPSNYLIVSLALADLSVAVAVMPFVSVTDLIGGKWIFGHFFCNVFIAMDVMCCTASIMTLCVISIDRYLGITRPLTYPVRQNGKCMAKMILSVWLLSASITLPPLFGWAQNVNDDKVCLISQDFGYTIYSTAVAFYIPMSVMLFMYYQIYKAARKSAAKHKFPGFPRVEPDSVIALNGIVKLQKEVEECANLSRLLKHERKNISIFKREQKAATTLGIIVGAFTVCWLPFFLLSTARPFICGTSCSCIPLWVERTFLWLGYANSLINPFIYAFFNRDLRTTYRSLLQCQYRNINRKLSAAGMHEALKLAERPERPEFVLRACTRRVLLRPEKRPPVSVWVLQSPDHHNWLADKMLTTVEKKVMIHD
5-hydroxytryptamine receptor 1B, sequence (P28222 whole entry): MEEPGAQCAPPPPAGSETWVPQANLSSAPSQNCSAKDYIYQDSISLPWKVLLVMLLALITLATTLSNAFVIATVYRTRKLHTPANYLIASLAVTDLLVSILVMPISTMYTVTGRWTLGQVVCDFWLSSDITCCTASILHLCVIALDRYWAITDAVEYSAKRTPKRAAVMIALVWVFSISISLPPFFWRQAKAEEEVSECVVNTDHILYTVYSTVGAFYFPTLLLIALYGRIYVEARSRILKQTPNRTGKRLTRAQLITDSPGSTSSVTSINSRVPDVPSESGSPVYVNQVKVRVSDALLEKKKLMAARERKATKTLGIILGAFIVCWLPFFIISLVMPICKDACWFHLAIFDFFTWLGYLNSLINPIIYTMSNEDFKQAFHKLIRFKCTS
5-hydroxytryptamine receptor 5A, sequence (P47898 whole entry): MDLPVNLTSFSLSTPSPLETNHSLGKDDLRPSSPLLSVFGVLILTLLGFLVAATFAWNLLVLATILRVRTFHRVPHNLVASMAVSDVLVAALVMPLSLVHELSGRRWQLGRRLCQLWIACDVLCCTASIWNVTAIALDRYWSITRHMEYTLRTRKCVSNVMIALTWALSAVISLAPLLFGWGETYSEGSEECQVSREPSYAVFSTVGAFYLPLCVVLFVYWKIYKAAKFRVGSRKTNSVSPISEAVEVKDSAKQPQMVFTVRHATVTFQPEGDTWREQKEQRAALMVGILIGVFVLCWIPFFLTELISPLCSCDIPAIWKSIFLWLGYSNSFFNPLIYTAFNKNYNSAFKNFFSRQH
5-hydroxytryptamine receptor 1D, sequence (P28221 whole entry): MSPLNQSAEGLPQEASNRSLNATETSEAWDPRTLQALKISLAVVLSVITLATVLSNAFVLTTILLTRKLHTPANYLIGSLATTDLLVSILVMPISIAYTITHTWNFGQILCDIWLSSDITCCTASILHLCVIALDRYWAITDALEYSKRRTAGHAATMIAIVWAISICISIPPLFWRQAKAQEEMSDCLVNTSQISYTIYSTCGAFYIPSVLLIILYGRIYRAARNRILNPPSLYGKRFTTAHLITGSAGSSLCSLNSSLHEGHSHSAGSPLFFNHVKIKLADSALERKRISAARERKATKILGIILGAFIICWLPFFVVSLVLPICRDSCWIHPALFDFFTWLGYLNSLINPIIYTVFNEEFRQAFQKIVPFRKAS
5-hydroxytryptamine receptor 2B, sequence (P41595 whole entry): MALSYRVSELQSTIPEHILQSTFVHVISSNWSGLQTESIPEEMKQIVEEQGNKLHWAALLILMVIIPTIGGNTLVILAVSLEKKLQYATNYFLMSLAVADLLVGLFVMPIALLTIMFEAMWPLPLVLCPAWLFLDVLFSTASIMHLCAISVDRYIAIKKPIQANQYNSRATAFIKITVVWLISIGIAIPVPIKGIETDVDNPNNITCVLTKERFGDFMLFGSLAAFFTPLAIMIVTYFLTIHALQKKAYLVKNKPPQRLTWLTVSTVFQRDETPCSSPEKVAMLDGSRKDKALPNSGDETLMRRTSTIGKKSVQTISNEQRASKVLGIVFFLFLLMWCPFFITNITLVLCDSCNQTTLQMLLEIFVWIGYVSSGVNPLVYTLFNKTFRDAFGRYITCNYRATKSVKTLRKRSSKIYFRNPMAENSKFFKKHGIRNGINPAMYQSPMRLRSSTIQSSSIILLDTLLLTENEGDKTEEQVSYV

## COc1cc(CCNCc2ccccc2F)c(O[11CH3])cc1I
[1]
  Drug uptake: 0.17

## [11CH3]N1CCN(c2cccc3c2O[C@H](C(=O)Nc2ccc(N4CCOCC4)cc2)CC3)CC1
[2]
  Ki: 0.6 nM

## O=C(NCCN1CCN(C2CCCc3ccccc32)CC1)c1ccc([18F])cc1 (centres undefined)
[3]
  Ki: 0.5 nM

## COc1cc(CCN)c(O[11CH3])cc1I
[1]
  Drug uptake: 0.17

## COc1ccccc1N1CCN(CCN(c2cccc(F)n2)[11C](=O)N2CCCCC2)CC1
[4]
  Ratio: 1.9
[5]
  Ratio: 3

## COc1ccccc1N1CCN(CCNC(=O)C2CCCCC2)CC1
[6]
  IC50: 4.3 nM

## Cc1[nH]c2ccc(NC(=O)c3ccc(F)cc3)cc2c1CCN(C)C
[7]
  Ki: > 260 nM
[8]
  Ki: > 260 nM
[9]
  Ki: > 260 nM
[10]
  Ki: > 260 nM
[11]
  Ki: > 260 nM
[12]
  Ki: > 260 nM
[13]
  Ki: > 260 nM

## CCCN(CCCCC1C(=O)CC2(CCCC2)CC1=O)[C@H]1CCc2cccc(OC)c2C1
[3]
  Ki: 0.9 nM

## COc1cc(Br)c(O[11CH3])cc1CCNCc1ccccc1OC
[14]
  SUV: 0.8

## CC1(NC(=O)c2ccc(N)cc2)CCN(CCCOc2ccc([18F])cc2)CC1
[15]
  logD: 2.53

## [11CH3]N1CCN(c2cccc3c2O[C@@H](C(=O)Nc2ccc(N4CCOCC4)cc2)CC3)CC1
[2]
  Ki: 0.3 nM

## O=C(C1CCCCC1)N(CCN1CCN(c2ccccc2OCCC[18F])CC1)c1ccccn1
[16]
  Ratio: 7.5

## COc1ccccc1N1CCN(CCN(c2ccccn2)C(=O)[C@H]2CC[C@H](C[18F])CC2)CC1
[3]
  Ki: 0.9 nM
[17]
  Ratio: 7.7

## CCCN(CCCSC)C1CCc2cccc(O)c2C1 (racemic)
[3]
  Ki: 0.19 nM

## c1cc2c3c(c1)[C@H]1CCC[C@H]1CN3CCNC2
[18]
  K: 3 nM
[19]
  K: 8 nM

## COc1ccccc1N1CCN(CCNC(=O)C2CC3CCC2CC3)CC1 (centres undefined)
[6]
  IC50: 1 nM

## [11CH3]Sc1cccc(C(=O)NC[C@H]2CCCN2CCc2ccccc2)c1
[3]
  Ki: 160 nM

## O=S(=O)(c1ccccc1F)N1CCC[C@@H]1CCCN1CCN(c2ccccn2)CC1
[20]
  Ki: 0.17 nM

## NC(=O)c1ccc(F)c2c1CC(N(C1CCC1)C1CCC1)CO2 (centres undefined)
[15]
  logD: 2.5
[3]
  Ki: 0.6 nM

## CN1CCN(c2cc(F)cc3c(=O)cc(C(=O)Nc4ccc(N5CCOCC5)c(F)c4)oc23)CC1
[2]
  Ki: 0.13 nM

## COc1cc(CCNCc2ccccc2OC)c(O[11CH3])cc1I
[14]
  SUV: 0.8

## CCCN(CCC)C1CCc2cccc(SC)c2C1 (racemic)
[6]
  IC50: 1.2 nM

## c1cc2c3c(c1)[C@H]1CCC[C@H]1N3CCNC2
[18]
  K: 10 nM
[19]
  K: 8 nM

## COc1ccccc1N1CCN(CCNC(=O)c2ccncc2)CC1
[21]
  Ki: 20 nM

## COc1ccccc1N1CCN(CCN(C(=O)c2ccc(F)c(C)c2)c2ccccn2)CC1
[21]
  Ki: 13 nM

## O=S(=O)(c1ccc(F)cc1)N1CCC[C@@H]1CCCN1CCN(c2ccc(Cl)cc2)CC1
[20]
  Ki: 0.32 nM

## [11CH3]Oc1ccccc1N1CCN(CCCN/C(=N\C#N)c2ccccn2)CC1
[3]
  Ki: 0.8 nM

## CC1CCN(CCC[C@H]2CCCN2S(=O)(=O)c2ccccc2F)CC1
[20]
  Ki: 7.6 nM

— ChEMBL document CHEMBL5108009, “Positron Emission Tomography (PET) Imaging Tracers for Serotonin Receptors” (J Med Chem, 2022)
